From ChEMBL document CHEMBL1909046, “DrugMatrix in vitro pharmacology data”
Where a SMILES comes first, the peptide text is derived from it. Bridges are numbered along the chain shown (N, C = ends). [ ]: non-standard residue; d: D form. The star is where a group is joined. Threoninol(2S,3R) = C[C@@H](O)[C@H](CO)N*

Assays:
[1] = molecular target: T1, Alpha-1A adrenergic receptor (Rattus norvegicus, UniProt P43140); assay: DRUGMATRIX: Alpha-1A adrenergic receptor radioligand binding (ligand: prazosin); assay type: cell membranes, Wistar, Submaxillary gland, Membrane; conditions: Not Active = under 50% inhibition at 10 µM
T1 sequence (P43140 whole entry): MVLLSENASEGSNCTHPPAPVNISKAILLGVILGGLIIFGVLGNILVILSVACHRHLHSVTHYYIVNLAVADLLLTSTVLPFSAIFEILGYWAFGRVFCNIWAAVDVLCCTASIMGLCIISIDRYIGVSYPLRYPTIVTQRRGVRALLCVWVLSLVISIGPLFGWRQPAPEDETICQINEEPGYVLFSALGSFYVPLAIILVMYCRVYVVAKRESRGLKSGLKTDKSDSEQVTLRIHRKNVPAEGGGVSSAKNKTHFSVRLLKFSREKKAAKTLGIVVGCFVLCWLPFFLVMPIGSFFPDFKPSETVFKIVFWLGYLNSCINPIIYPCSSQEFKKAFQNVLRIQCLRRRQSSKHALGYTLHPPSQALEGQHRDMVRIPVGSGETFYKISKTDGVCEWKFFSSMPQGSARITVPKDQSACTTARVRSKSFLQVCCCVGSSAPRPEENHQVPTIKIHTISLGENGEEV

[2] = molecular target: 5-hydroxytryptamine receptor 6 (Homo sapiens, UniProt P50406); assay type: cell membranes, HeLa, Membrane; conditions: hela; further: in other assays of this panel Not Active means under 50% inhibition at 10 µM
Chain of 5-hydroxytryptamine receptor 6 (P50406 whole entry): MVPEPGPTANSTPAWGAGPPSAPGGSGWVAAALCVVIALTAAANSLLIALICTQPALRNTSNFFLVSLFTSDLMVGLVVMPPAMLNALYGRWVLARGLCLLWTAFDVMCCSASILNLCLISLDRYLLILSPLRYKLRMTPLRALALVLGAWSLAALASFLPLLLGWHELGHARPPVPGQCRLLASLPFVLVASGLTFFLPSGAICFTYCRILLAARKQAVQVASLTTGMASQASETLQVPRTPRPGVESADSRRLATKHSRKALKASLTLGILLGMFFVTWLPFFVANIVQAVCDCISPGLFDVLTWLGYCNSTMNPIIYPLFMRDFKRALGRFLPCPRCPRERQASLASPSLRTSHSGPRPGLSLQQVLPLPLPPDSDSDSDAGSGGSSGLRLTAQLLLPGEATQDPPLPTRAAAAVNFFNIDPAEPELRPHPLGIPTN

[3] = molecular target: T2, Progesterone receptor (Bos taurus, UniProt Q690N0); assay: DRUGMATRIX: Progesterone radioligand binding (ligand: [3H] R-5020); assay type: tissue-based, Uterus; conditions: Not Active = under 50% inhibition at 10 µM
T2 sequence (Q690N0 whole entry): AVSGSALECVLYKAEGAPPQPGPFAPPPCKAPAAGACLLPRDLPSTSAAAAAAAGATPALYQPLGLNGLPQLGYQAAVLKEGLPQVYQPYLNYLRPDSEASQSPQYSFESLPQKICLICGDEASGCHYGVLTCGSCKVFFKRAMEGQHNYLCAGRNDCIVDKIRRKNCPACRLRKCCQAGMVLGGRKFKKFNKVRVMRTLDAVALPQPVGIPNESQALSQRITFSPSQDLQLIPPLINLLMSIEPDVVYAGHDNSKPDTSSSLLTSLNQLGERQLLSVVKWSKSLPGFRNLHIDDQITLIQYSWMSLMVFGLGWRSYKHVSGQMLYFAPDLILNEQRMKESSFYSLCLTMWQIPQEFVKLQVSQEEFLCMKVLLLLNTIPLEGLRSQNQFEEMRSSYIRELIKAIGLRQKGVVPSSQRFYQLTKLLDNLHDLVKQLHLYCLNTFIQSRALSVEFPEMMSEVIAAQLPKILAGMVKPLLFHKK

[4] = DRUGMATRIX: Glutamate, Kainate radioligand binding (ligand: [3H] Kainic acid); assay type: cell membranes, Rattus norvegicus, Wistar, Brain, Membrane; conditions: Not Active = under 50% inhibition at 10 µM
[5] = molecular target: T3, Alpha-1D adrenergic receptor (Homo sapiens, UniProt P25100); assay type: cell membranes, HEK293, Membrane; conditions: hek293; further: in other assays of this panel Not Active means under 50% inhibition at 10 µM
T3 sequence (P25100 whole entry): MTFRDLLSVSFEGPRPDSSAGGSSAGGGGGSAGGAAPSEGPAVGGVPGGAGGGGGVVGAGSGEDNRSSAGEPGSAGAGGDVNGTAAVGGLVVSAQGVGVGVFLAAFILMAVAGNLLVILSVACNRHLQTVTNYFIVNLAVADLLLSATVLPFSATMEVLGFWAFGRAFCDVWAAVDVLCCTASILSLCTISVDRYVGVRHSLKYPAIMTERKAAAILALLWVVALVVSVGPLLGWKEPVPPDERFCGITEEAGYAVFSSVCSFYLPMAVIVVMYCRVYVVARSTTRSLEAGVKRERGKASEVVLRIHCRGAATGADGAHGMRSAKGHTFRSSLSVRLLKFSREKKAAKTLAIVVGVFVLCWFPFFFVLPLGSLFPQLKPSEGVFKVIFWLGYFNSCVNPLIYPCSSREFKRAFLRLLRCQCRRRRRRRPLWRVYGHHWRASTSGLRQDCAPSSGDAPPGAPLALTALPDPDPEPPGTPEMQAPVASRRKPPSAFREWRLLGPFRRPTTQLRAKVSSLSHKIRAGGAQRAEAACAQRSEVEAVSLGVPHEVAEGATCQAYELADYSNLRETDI

[6] = molecular target: Protein kinase C alpha type (Homo sapiens, UniProt P17252); assay type: cell-based; conditions: sf9;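 further: inhibition of PKCalpha kinase activity measured in an enzyme assay with histone as the phosphorylation substrate; in other assays of this panel Not Active means under 50% inhibition at 10 µM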
[7] = DRUGMATRIX: GABAA, Muscimol, Central radioligand binding (ligand: [3H] Muscimol); assay type: cell membranes, Rattus norvegicus, Wistar, Brain, Membrane; conditions: Not Active = under 50% inhibition at 10 µM
[8] = DRUGMATRIX: Interleukin IL-1 radioligand binding (ligand: [125I] interleukin 1beta); assay type: cell membranes, Membrane; conditions: nih3t3; Not Active = under 50% inhibition at 10 µM

COc1ccccc1C(=O)N1CCC(Cc2ccccc2)CC1
Not Active: IC50 [1] | IC50 [2] | IC50 [3] | IC50 [4] | Ki [4] | IC50 [5] | IC50 [6] | IC50 [7] | Ki [7] | IC50 [8] | Ki [8]

Cc1ccccc1C(=O)N1CCC(Cc2ccccc2)CC1
Not Active: IC50 [1] | IC50 [2] | IC50 [3] | IC50 [4] | Ki [4] | IC50 [5] | IC50 [6] | IC50 [7] | Ki [7] | IC50 [8] | Ki [8]

O=C1CC[C@H](N2C(=O)c3ccccc3C2=O)C(=O)N1
Not Active: IC50 [1] | IC50 [2] | IC50 [3] | IC50 [4] | Ki [4] | IC50 [5] | IC50 [6] | IC50 [7] | Ki [7] | IC50 [8] | Ki [8]

N=C(Nc1ccccc1)Nc1ccccc1
Not Active: IC50 [1] | IC50 [2] | IC50 [3] | IC50 [4] | Ki [4] | IC50 [5] | IC50 [6] | IC50 [7] | Ki [7] | IC50 [8] | Ki [8]

C[C@@H](O)[C@H](CO)NC(=O)[C@@H]1CSSC[C@H](NC(=O)[C@H](N)Cc2ccccc2)C(=O)N[C@@H](Cc2ccccc2)C(=O)N[C@H](Cc2c[nH]c3ccccc23)C(=O)N[C@@H](CCCCN)C(=O)N[C@@H]([C@@H](C)O)C(=O)N1 (H-[dF]CF[dW]KTC-{Threoninol(2S,3R)}; disulfide 2-7)
Not Active: IC50 [1] | IC50 [2] | IC50 [3] | IC50 [4] | Ki [4] | IC50 [5] | IC50 [6] | IC50 [7] | Ki [7] | IC50 [8] | Ki [8]

S=C=Nc1cccc2ccccc12 [1-NAPHTHYLISOTHIOCYANATE]
Not Active: IC50 [1] | IC50 [2] | IC50 [3] | IC50 [4] | Ki [4] | IC50 [5] | IC50 [6] | IC50 [7] | Ki [7] | IC50 [8] | Ki [8]

C[C@](O)(CS(=O)(=O)c1ccc(F)cc1)C(=O)Nc1ccc(C#N)c(C(F)(F)F)c1 [(R)-BICALUTAMIDE]
Not Active: IC50 [1] | IC50 [2] | IC50 [3] | IC50 [4] | Ki [4] | IC50 [5] | IC50 [6] | IC50 [7] | Ki [7] | IC50 [8] | Ki [8]

CCCC(=O)Nc1ccc(OCC(O)CNC(C)C)c(C(C)=O)c1 (stereo unspecified) [ACEBUTOLOL]
Not Active: IC50 [1] | IC50 [2] | IC50 [3] | IC50 [4] | Ki [4] | IC50 [5] | IC50 [6] | IC50 [7] | Ki [7] | IC50 [8] | Ki [8]

CC(=O)Nc1ccc(O)cc1 [ACETAMINOPHEN]
Not Active: IC50 [1] | IC50 [2] | IC50 [3] | IC50 [4] | Ki [4] | IC50 [5] | IC50 [6] | IC50 [7] | Ki [7] | IC50 [8] | Ki [8]

COc1cc2c(c3oc(=O)c4c(c13)CCC4=O)[C@@H]1C=CO[C@@H]1O2 [AFLATOXIN]
Not Active: IC50 [1] | Ki [1] | IC50 [2] | Ki [2] | IC50 [3] | Ki [3] | IC50 [4] | Ki [4] | IC50 [5] | Ki [5] | IC50 [6] | Ki [6] | IC50 [7] | Ki [7] | IC50 [8] | Ki [8]

N=C(N)NC(=O)c1nc(Cl)c(N)nc1N [AMILORIDE]
Not Active: IC50 [1] | IC50 [2] | IC50 [3] | IC50 [4] | Ki [4] | IC50 [5] | IC50 [6] | IC50 [7] | Ki [7] | IC50 [8] | Ki [8]

Cc1cc(=O)n(-c2ccccc2)n1C [ANTIPYRINE]
Not Active: IC50 [1] | IC50 [2] | IC50 [3] | IC50 [4] | Ki [4] | IC50 [5] | IC50 [6] | IC50 [7] | Ki [7] | IC50 [8] | Ki [8]

CN1C(=O)COc2c(C(=O)NC3CN4CCC3CC4)cc(Cl)cc21 (stereo unspecified) [AZASETRON]
Not Active: IC50 [1] | IC50 [2] | IC50 [3] | IC50 [4] | Ki [4] | IC50 [5] | IC50 [6] | IC50 [7] | Ki [7] | IC50 [8] | Ki [8]

C[C@H]1C[C@H]2[C@@H]3CCC4=CC(=O)C=C[C@]4(C)[C@@]3(Cl)[C@@H](O)C[C@]2(C)[C@@]1(O)C(=O)CO [BECLOMETHASONE]
Not Active: IC50 [1] | IC50 [2] | IC50 [3] | IC50 [4] | Ki [4] | IC50 [5] | IC50 [6] | IC50 [7] | Ki [7] | IC50 [8] | Ki [8]

CCOC(=O)[C@H](CCc1ccccc1)N[C@H]1CCc2ccccc2N(CC(=O)O)C1=O [BENAZEPRIL]
Not Active: IC50 [1] | IC50 [2] | IC50 [3] | IC50 [4] | Ki [4] | IC50 [5] | IC50 [6] | IC50 [7] | Ki [7] | IC50 [8] | Ki [8]

Nc1c(CC(=O)O)cccc1C(=O)c1ccc(Br)cc1 [BROMFENAC]
Not Active: IC50 [1] | IC50 [2] | IC50 [3] | IC50 [4] | Ki [4] | IC50 [5] | IC50 [6] | IC50 [7] | Ki [7] | IC50 [8] | Ki [8]

CCCCN1CCCCC1C(=O)Nc1c(C)cccc1C.Cl (stereo unspecified) [BUPIVACAINE HYDROCHLORIDE]
Not Active: IC50 [1] | IC50 [2] | IC50 [3] | IC50 [4] | Ki [4] | IC50 [5] | IC50 [6] | IC50 [7] | Ki [7] | IC50 [8] | Ki [8]

O=C1CC2(CCCC2)CC(=O)N1CCCCN1CCN(c2ncccn2)CC1 [BUSPIRONE]
Not Active: IC50 [2] | IC50 [3] | IC50 [4] | Ki [4] | IC50 [6] | IC50 [7] | Ki [7] | IC50 [8] | Ki [8]

C=C1CC[C@H](O)C/C1=C/C=C1\CCC[C@]2(C)[C@@H]([C@H](C)CCCC(C)C)CC[C@@H]12 [CHOLECALCIFEROL]
Not Active: IC50 [1] | IC50 [2] | IC50 [4] | Ki [4] | IC50 [5] | IC50 [6] | IC50 [7] | Ki [7] | IC50 [8] | Ki [8]

CCCCOc1ccc(OCCCN2CCOCC2)cc1 [PRAMOXINE]
Not Active: IC50 [1] | IC50 [2] | IC50 [4] | Ki [4] | IC50 [5] | IC50 [6] | IC50 [7] | Ki [7] | IC50 [8] | Ki [8]
